Experimental data from patent US11147884B2, “Inhibitors of NHE-mediated antiport” (Ardelyx, Inc., priority 2017, dated 2021).

Tested on: mice
Assay: Gastrointestinal transit (Evans Blue dye front) in opioid induced constipation model
Type: in vivo
Details: oral vehicle, subcutaneous loperamide (0.3 to 6 mg/kg); 30-minute period; vehicle/vehicle approximately 70%
Procedure: Gastrointestinal transit is measured in mice treated with the peripherally acting μ-opioid agonist loperamide to assess the ability of selected example compounds to restore gastrointestinal motility in a model of opioid induced constipation. Approximately eight-week old, female, CD 1 rats are purchased from Envigo (Livermore, Calif.), are housed 4 per cage and acclimated for at least 48 hours before study initiation. Animals are fed standard laboratory rodent chow Harlan Teklad Global 2018 (Maddison, Wis.). […] 30 minutes later, animals are euthanized by carbon dioxide inhalation, and the length from the pylorus to cecum (whole length of the small intestine) and the length from the pylorus to the Evans Blue dye front are measured and recorded. For an individual animal, the length travelled by the Evans Blue dye front is divided by the length of the whole small intestine, measured from the pylorus to the cecum, and multiplied by 100, to provide the distance of the small intestine travelled by the dye as a percentage. […] The effect of example compounds on GIT motility in the presence of loperamide is calculated as the ability to restore vehicle/vehicle transit distance from the vehicle/loperamide transit, expressed as a percentage.

CN(C)C(=O)C(CCN1CCC(O)(c2ccc(Cl)cc2)CC1)(c1ccccc1)c1ccccc1 [loperamide]
length of the small intestine travelled by Evans Blue dye front: ~25%
